From article PMC3328449, “Inhibition of Diacylglycerol–Sensitive TRPC Channels by Synthetic and Natural Steroids” (PLoS ONE, 2012)
“And” between values parts separate entries of the source, which are not always exact repeats. Identical values can stand only once.

Biological target: T1, hTRPC3 (Homo sapiens, UniProt Q13507)
T1 construct: expressed in transfected cells
T1 sequence (Q13507 1-848 isoform Q13507-3): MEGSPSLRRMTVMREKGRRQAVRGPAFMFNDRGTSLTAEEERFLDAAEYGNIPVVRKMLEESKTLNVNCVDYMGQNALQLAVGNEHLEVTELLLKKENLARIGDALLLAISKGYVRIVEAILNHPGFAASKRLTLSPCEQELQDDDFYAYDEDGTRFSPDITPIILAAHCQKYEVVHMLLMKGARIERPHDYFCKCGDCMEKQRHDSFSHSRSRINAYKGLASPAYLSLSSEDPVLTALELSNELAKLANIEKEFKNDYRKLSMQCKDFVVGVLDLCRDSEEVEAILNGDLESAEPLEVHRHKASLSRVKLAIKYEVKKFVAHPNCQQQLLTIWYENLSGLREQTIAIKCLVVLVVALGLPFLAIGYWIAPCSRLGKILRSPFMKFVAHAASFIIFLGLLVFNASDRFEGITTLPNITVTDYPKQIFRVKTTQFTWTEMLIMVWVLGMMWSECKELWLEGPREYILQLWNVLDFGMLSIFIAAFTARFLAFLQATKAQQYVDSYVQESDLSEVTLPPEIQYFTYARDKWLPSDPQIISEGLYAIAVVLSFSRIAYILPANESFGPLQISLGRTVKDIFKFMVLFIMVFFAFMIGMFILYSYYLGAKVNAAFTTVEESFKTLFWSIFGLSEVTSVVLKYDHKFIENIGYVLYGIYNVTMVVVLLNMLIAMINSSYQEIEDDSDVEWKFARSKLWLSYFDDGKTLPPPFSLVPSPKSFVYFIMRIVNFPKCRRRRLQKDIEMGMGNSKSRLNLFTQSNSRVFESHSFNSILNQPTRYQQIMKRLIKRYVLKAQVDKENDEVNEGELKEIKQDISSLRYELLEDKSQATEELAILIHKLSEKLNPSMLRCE
Test: OAG-induced Ca2+ entry, fluo-4 fluorometric imaging plate reader, TRPC3 CHO cells
Assay type: cell-based
Settings: for IC50: TRPC3 CHO cells, fluo-4, area under the curve, 10 min pre-incubation, read-out: IC50, inhibition of OAG-induced Ca2+ entry via TRPC3; for Hill slope n, inhibition of TRPC3-mediated Ca2+ entry: fit to Hill model
Protocol: hTRPC3 (GenBank accession number NM_003305) was stably expressed in chinese hamster ovary (CHO) cells using a proprietary high expression vector (Steinbeis -Transferzentrum für Angewandte Biologische Chemie, Mannheim, Germany). Cells grown to an almost confluent monolayer on black poly-D-lysine coated 96-well plates (Greiner, Frickenhausen, Germany) were washed with standard extracellular solution (140 mM NaCl, 1 mM MgCl2, 5.4 mM KCl, 2 mM CaCl2, 10 mM HEPES, 10 mM glucose, pH 7.35) and stained (30 min, room temperature) with dye solution (2 μM fluo-4 AM, 0.02% pluronic F127, 0.1% bovine serum albumin in standard extracellular solution). Cells were washed and either incubated with standard extracellular solution only or with different concentrations of test compounds for 10 min. Fluo-4 fluorescence was excited at 488 nm with an argon laser and measured using a fluorometric imaging plate reader (Molecular Devices, Sunnyvale, USA). All fluorometric measurements were performed at room temperature. […] Baseline fluorescence in non-OAG-stimulated cells and OAG-stimulated Ca^2+ influx into control cells not treated with inhibitors were defined as 0% and 100% influx, respectively. For statistical analysis, analysis of variance was performed with Origin 6.0 software (Microcal Software Inc., Northampton, USA). […] Averaged data is expressed as means ± SEM.

| Compound | Effect on TRPC3-mediated Ca2+ entry (30 µM pre-incubation, OAG-induced) | IC50 | Hill slope n, inhibition of TRPC3-mediated Ca2+ entry |
| --- | --- | --- | --- |
| C#C[C@]1(OC(C)=O)CC[C@H]2[C@@H]3CCC4=CC(=NO)CC[C@@H]4[C@H]3CC[C@@]21CC (mixture of isomers) [norgestimate] | significantly reduced | 3 to 5 µM and 3 µM | 1.67 |
| CC(=O)[C@H]1CC[C@H]2[C@@H]3CCC4=CC(=O)CC[C@]4(C)[C@H]3CC[C@]12C [progesterone] |  | 12.4 µM | 3.6 |
